Results as given in patent US5968940A, “Retinoids and methods of use of same” (priority 1996, dated 1999).

Experiments:
[1] = system: Human promyelocytic leukemia HL-60 cells; experiment: Cell differentiation of HL-60 cells, nitroblue tetrazolium (NBT) reduction / morphology; type: cell-based
Method: Human promyelocytic leukemia HL-60 cells were cultured in RPMI-1640 medium supplemented by 10% heat-inactivated calf serum and 100 U/ml of penicillin plus 100 μg/ml of streptomycin. The flasks containing cells and medium were incubated in an incubator with 5% CO2 at 37° C. Log phase cells were seeded into the medium at a concentration of 1.2×10^5to 1.4×10^5 cells per ml and cultured in flasks containing 5 ml of medium. Each group consisted of three flasks. Different concentrations of coumarin-retinoids were added. At intervals following the addition of coumarin-retinoids to the cultures, a small portion of cells was removed and live cells were counted under a light microscope using a dye-exclusionmethod with trypan blue. Cell differentiation was judged in terms of morphology and nitroblue tetrazolium (NBT) reduction.
For a determination of NBT reducing activity, a portion of the coumarin-retinoid-treated cells was removed at intervals following treatment and centrifuged. After centrifugation, 0.5 ml of 0.1% NBT (containing 100 ng TPA) was added to each tube. The contents of the test tubes were then incubated for 1 hour at 37° C. Cell smears were prepared from the cell sediment and stained using the Wright-Giemsa technique. For each smear prepared, 200 cells were isolated for examination under a light microscope with an oil immersion lens. Cells stained with blue-black granules were considered NBT-positive cells. The 50% differentiation or effective concentration (ED50 or EC50) is shown in terms of molar (M) concentration of the […] tested.
For a determination of cell morphology, a cell smear was prepared at intervals following treatment of cells for each coumarin-retinoid concentration group using the Wright-Giemsa stain technique. Stained cells were counted and classified under a light microscope with an oil immersion lens. After treatment with coumarin-retinoids, the morphological development of HL-60 cells proceeded toward mature granulocytes. This development was manifested by decreased cell volume; a lower nuclei to cytoplasm ratio; smaller or missing nuclei; concentration of chromatin; and the appearance of a certain proportion of intermediate and late granuloblasts (progranulocytes), elongated rod granulocytes, and granulocytes with branched nuclei.
(§1) The protocols of Examples 14 and 21 were used, for the NBT and MTT assays, respectively.

chondrosarcoma = experiment: Growth of chondrosarcoma in rats; type: in vivo; details: for Body Weight final: in g (unit assumed)
Text: Transplantable chondrosarcomas obtained from Dr. Trown, Hoffman--La Roche Institute of Molecular Biology and Wistar rats obtained from the Breeding Center of Experimental Animals, Chinese Academy of Medical Sciences were used. According to the routine transplantation protocol as described in Cancer Treatment Reports 60(11):1647-1653 (1976) where the small pieces of chondrosarcoma tumor were implanted subcutaneously in the right inguinal region of rats using a trocar. Tumor-bearing rats were randomized to a control group and a treated group. Each group consisted of ten rats. […] Sixty days after transplantation, the rats were sacrificed and the tumor weight was determined. The inhibition rate was calculated according to the following formula: [formula]

fetus absorption in mice = experiment: Effect on fetus absorption in mice; type: in vivo
Method: (§2) Female mice were examined by vaginal smear the morning after being caged with male mice, and if sperm or a vaginal plug was discovered, then the mice were determined to be pregnant. The retinoids were administered at the dosage indicated starting on the seventh day of pregnancy and continued once a day for the next ten days. On the 20th day after the female mice were determined to be pregnant, they were sacrificed by cervical dislocation. Both sides of the uterus were checked and the number of living embryos, dead embryos, and absorbed embryos were counted. The living embryos were further examined for bone abnormalities.

HL-60 cells = experiment: MTT assay, inhibition of HL-60 cells; type: cell-based, human; details: HL-60, Table 15
Method: Human cancer cell lines (KB, A2780, MCF-7, HL-60, A549) were used. For a monolayer culture, 0.5 ml of trypsin solution ([…]) was added to the flasks for digestion. Microtiter plates (96 well) were used for the cell culture and 200 μl of cell suspension (1200 tumor cells) were placed in each well and incubated at 37° C. for 24 hours. Following the addition of the test compound, the control and treated flasks were placed in a CO2 incubator for 5 day culture. For the MTT assay, 200 μl of MTT solution (5 mg in 10 ml of phosphate buffer) plus the medium were added and incubated for another 4 hours. Following incubation, the supernatant was discarded and 200 μl of DMSO was added to each well. With a mild agitation the OD values were determined by the MR 700 Elisa at 570 nm (reference wavelength was 450 nm). The ED50 of the compound and tumor cell survival rate [formula] as percent inhibition were calculated.
as §1

[2] = system: bone abnormalities in mouse fetus; experiment: Bone abnormalities in mouse fetus; type: in vivo
Method: as §2
After the embryos became transparent, they were dissected and their skeletons were checked by observation under a microscope.

SMILES | NBT (+) % ([1]; 10^-5 M) [%] | NBT (+) % ([1]; 10^-6 M) [%] | NBT (+) % ([1]; 10^-7 M) [%] | EC50 (HL-60 cells; Homo sapiens) [µM] | other results
CCOC(=O)c1cc2ccc(OC(=O)/C=C(C)/C=C/C=C(C)/C=C/C3=C(C)CCCC3(C)C)c(C)c2oc1=O [Compound I-15] | 93 | 84 | 46 |  | NBT (+) % ([1]; 10^-8 M): 12%
CC(=O)c1cc2c(OC(=O)/C=C(C)/C=C/C=C(C)/C=C/C3=C(C)CCCC3(C)C)c(C(=O)O)ccc2oc1=O [Compound I-8] | 98 | 69 | 55 |  | NBT (+) % ([1]; 10^-8 M): 34%
CC(=O)c1cc2ccc(OC(=O)/C=C(C)/C=C/C=C(C)/C=C/C3=C(C)CCCC3(C)C)c(C)c2oc1=O [Compound I-3] | 88 | 77 | 12 |  | 
CC(=O)c1cc2c(COC(=O)/C=C(C)/C=C/C=C(C)/C=C/C3=C(C)CCCC3(C)C)cc(OC(=O)/C=C(C)/C=C/C=C(C)/C=C/C3=C(C)CCCC3(C)C)cc2oc1=O [Compound I-7] | 85 | 65 | 12 |  | 
CC1=C(/C=C/C(C)=C/C=C/C(C)=C/C(=O)Nc2ncnc3c2ncn3C(=O)/C=C(C)/C=C/C=C(C)/C=C/C2=C(C)CCCC2(C)C)C(C)(C)CCC1 [II-A] |  |  |  |  | Animals final (chondrosarcoma; 2 mg/kg × 10, initial 10): 9; Body Weight final (chondrosarcoma; 2 mg/kg × 10, initial 74.1): 130.6; Inhibition rate (%) (chondrosarcoma; 5 mg/kg × 10 (Table 14)): 62.6%; Tumor Weight (chondrosarcoma; 5 mg/kg × 10 (Table 14)): 4.0 grams; Animals final (chondrosarcoma; 5 mg/kg × 10, initial 10 (Table 14)): 9; Body Weight final (chondrosarcoma; 5 mg/kg × 10, initial 71.7 (Table 14)): 129.2; Absorbed Number (fetus absorption in mice; 20 mg/kg, implanted number 141, 12 pregnant mice): 10; Absorbed Number (fetus absorption in mice; 40 mg/kg, implanted number 181, 15 pregnant mice): 17
CC1=C(/C=C/C(C)=C/C=C/C(C)=C/C(=O)Oc2cc(=O)oc3ccc(C(C)(C)C)cc23)C(C)(C)CCC1 [Compound I-28, 4-retinoyloxy-6-t-butyl-coumarin] |  |  |  | > 10 | 
CCc1cc2c(C)cc(=O)oc2cc1OC(=O)/C=C(C)/C=C/C=C(C)/C=C/C1=C(C)CCCC1(C)C [Compound I-31, 4-methyl-6-ethyl-7-retinoyloxy-coumarin] |  |  |  | > 10 | 
CCCCCCCCCCCCOC(=O)c1cc(OC(=O)/C=C(C)/C=C/C=C(C)/C=C/C2=C(C)CCCC2(C)C)c(OC(=O)/C=C(C)/C=C/C=C(C)/C=C/C2=C(C)CCCC2(C)C)c2oc(=O)c(C(=O)OCC)cc12 [Compound I-12] | 82 | 47 | 30 |  | NBT (+) % ([1]; 10^-8 M): 0%; NBT (+) % ([1]; 10^-9 M): 0%
CCOC(=O)c1cc(OC(=O)/C=C(C)/C=C/C=C(C)/C=C/C2=C(C)CCCC2(C)C)cc2oc(=O)c(C(C)=O)cc12 [Compound I-11, 3-acetyl-5-ethoxycarbyl-7-retinoyloxy-coumarin] | 72 | 49 | 8 |  | NBT (+) % ([1]; 10^-4 M): 77%
CC1=C(/C=C/C(C)=C/C=C/C(C)=C/C(=O)Oc2cc(C(=O)O)c3cc(C(N)=O)c(=O)oc3c2)C(C)(C)CCC1 [Compound I-26] | 97 | 91 | 53 |  | NBT (+) % ([1]; 10^-8 M): 34%
CCOC(=O)c1cc2c(OC(=O)/C=C(C)/C=C/C=C(C)/C=C/C3=C(C)CCCC3(C)C)cc(OC(=O)/C=C(C)/C=C/C=C(C)/C=C/C3=C(C)CCCC3(C)C)cc2oc1=O [Compound I-21] | 94 | 80 | 41 |  | NBT (+) % ([1]; 10^-8 M): 17%
CC(=O)c1cc2ccc(OC(=O)/C=C(C)/C=C/C=C(C)/C=C/C3=C(C)CCCC3(C)C)c(OC(=O)/C=C(C)/C=C/C=C(C)/C=C/C3=C(C)CCCC3(C)C)c2oc1=O [Compound I-9] | 96 | 88 | 55 |  | Fetus Absorption, absorbed number/implanted number (fetus absorption in mice; 20 mg/kg once a day from day 7 of pregnancy): 0/113; Fetus Absorption, absorbed number/implanted number (fetus absorption in mice; 40 mg/kg once a day from day 7 of pregnancy): 0/119; NBT (+) % ([1]; 10^-8 M): 31%; Delayed Calcification, Occipital delay/fetus number ([2]; 20 mg/kg): 0/75; Delayed Calcification, Sternum delay/fetus number ([2]; 20 mg/kg): 0/75; Delayed Calcification, Occipital delay/fetus number ([2]; 40 mg/kg): 3/77; Delayed Calcification, Sternum delay/fetus number ([2]; 40 mg/kg): 2/77
CCOC(=O)c1cc2ccc(OC(=O)/C=C(C)/C=C/C=C(C)/C=C/C3=C(C)CCCC3(C)C)cc2oc1=O [Compound I-17] | 84 | 54 | 2 |  | 
CCOC(=O)c1cc2cc(Cl)c(OC(=O)/C=C(C)/C=C/C=C(C)/C=C/C3=C(C)CCCC3(C)C)cc2oc1=O [Compound I-18] | 44 | 8 |  |  | 
CC(=O)c1cc2c(C)cc(OC(=O)/C=C(C)/C=C/C=C(C)/C=C/C3=C(C)CCCC3(C)C)cc2oc1=O [Compound I-2] | 84 | 38 | 2 |  | 
CCCCCCc1cc2c(C)cc(=O)oc2cc1OC(=O)/C=C(C)/C=C/C=C(C)/C=C/C1=C(C)CCCC1(C)C [Compound I-34, 4-methyl-6-hexyl-7-retinoyloxy-coumarin] |  |  |  | > 10 | 
CC(=O)c1cc2c(C(=O)O)cc(OC(=O)/C=C(C)/C=C/C=C(C)/C=C/C3=C(C)CCCC3(C)C)cc2oc1=O [Compound I-4, 3-acetyl-5-carboxy-7-retinoyloxy coumarin] | 92 | 84 | 73 |  | NBT (+) % ([1]; 10^-8 M): 15%
CC1=C(/C=C/C(C)=C/C=C/C(C)=C/C(=O)Oc2ccc3c(C)cc(=O)oc3c2)C(C)(C)CCC1 [Compound I-32, 4-methyl-7-retinoyloxy-coumarin] |  |  |  |  | EC50 (HL-60 cells): 11 µM; EC50 ([1]; HL-60, Table 15, read-out: NBT ED50): 13 µM
CC1=C(/C=C/C(C)=C/C=C/C(C)=C/C(=O)Oc2ccc3c(C)cc(=O)oc3c2OC(=O)/C=C(C)/C=C/C=C(C)/C=C/C2=C(C)CCCC2(C)C)C(C)(C)CCC1 [Compound I-36, 4-methyl-7,8-diretinoyloxy-coumarin] |  |  |  | 3.2 | 
CC1=C(/C=C/C(C)=C/C=C/C(C)=C/C(=O)Oc2cc(=O)oc3c(C)cccc23)C(C)(C)CCC1 [Compound I-29] |  |  |  | 1.9 | 
CC1=C(/C=C/C(C)=C/C=C/C(C)=C/C(=O)Oc2ccc3c(C)cc(=O)oc3c2C)C(C)(C)CCC1 [Compound I-30] |  |  |  | > 10 | 
CCOC(=O)c1cc2c(C(=O)O)cc(OC(=O)/C=C(C)/C=C/C=C(C)/C=C/C3=C(C)CCCC3(C)C)cc2oc1=O [Compound I-19] | 84 | 5 |  |  | NBT (+) % ([1]; 10^-4 M): 92%
CC1=C(/C=C/C(C)=C/C=C/C(C)=C/C(=O)Oc2cc(OC(=O)/C=C(C)/C=C/C=C(C)/C=C/C3=C(C)CCCC3(C)C)c3c(C)cc(=O)oc3c2)C(C)(C)CCC1 [Compound I-33, 4-methyl-5,7-diretinoyloxy-coumarin] |  |  |  | 3.2 | 
CC1=C(/C=C/C(C)=C/C=C/C(C)=C/C(=O)Oc2cc3oc(=O)c(C(N)=O)cc3cc2Cl)C(C)(C)CCC1 [Compound I-27] | 88 | 80 | 17 |  | 
CC1=C(/C=C/C(C)=C/C=C/C(C)=C/C(=O)Oc2cc(=O)oc3ccc(C)cc23)C(C)(C)CCC1 [Compound I-35, 4-retinoyloxy-6-methyl-coumarin] |  |  |  | 2.6 | 
